Calls of active or inactive are those of the source.
Assays:
Oxytocin receptor = Oxytocin receptor (Homo sapiens, UniProt P30559); test: Fluorescence-based cell-based high throughput dose response assay for agonists of the Oxytocin Receptor (OXTR). [Related pubchem assays: 2435 (Primary screen (OXTR agonists in singlicate)), 434991 (Counterscreen (V1R agonists in triplicate)), 2482 (Summary (OXTR agonists)), 434963 (Confirmation screen (OXTR agonists in triplicate))]; assay type: functional
[1] = Luminescence Cell-Based Dose Retest to Confirm Inhibitors of Cancer Stem Cells. [Related pubchem assays (depositor defined):AID2717, AID2721]; assay type: functional; conditions: Homo sapiens
Vasopressin V1a receptor = Vasopressin V1a receptor (Homo sapiens, UniProt P37288); test: Counterscreen for Oxytocin Receptor (OXTR) agonists: Fluorescence-based cell-based high throughput dose response assay to identify agonists of the vasopressin 1 receptor (V1R). [Related pubchem assays: 2435 (Primary screen (OXTR agonists in singlicate)), 434991 (Counterscreen (V1R agonists in triplicate)), 2482 (Summary (OXTR agonists)) …; assay type: functional
[2] = HIV-1 Env-mediated cell fusion inhibitors, dose response, CCR5-tropic Env (AID 2279); assay type: functional
[3] = inhibitors of SNCA 5'UTR-driven reporter translation, confirmation, H4 neuroglioma cells, luminescence (AID 1988); assay type: functional, cell-based
[4] = inhibitors of firefly luciferase expression or activity, dose response, H4 neuroglioma cells, luminescence (AID 1990); assay type: functional, cell-based
[5] = Luminescence Cell-Based Dose Response HTS to Identify Inhibitors of 5'UTR Stem-Loop Driven Prion Protein mRNA Translation in H4 Neuroglioblastoma Cells. [Related pubchem assays: 1827 (Project Summary), 1813 (Primary HTS)]; assay type: functional
Estrogen receptor = Estrogen receptor (Homo sapiens, UniProt P03372);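 further: potency for inhibiting coactivator peptide recruitment to the receptor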
[6] = molecular target: T1, Calpain-2 catalytic subunit (Sus scrofa, UniProt P43367); test: pig calpain II inhibitor potency, dose response, biochemical, fluorogenic peptide substrate (AID 1420); assay type: functional
T1 sequence (P43367 whole entry): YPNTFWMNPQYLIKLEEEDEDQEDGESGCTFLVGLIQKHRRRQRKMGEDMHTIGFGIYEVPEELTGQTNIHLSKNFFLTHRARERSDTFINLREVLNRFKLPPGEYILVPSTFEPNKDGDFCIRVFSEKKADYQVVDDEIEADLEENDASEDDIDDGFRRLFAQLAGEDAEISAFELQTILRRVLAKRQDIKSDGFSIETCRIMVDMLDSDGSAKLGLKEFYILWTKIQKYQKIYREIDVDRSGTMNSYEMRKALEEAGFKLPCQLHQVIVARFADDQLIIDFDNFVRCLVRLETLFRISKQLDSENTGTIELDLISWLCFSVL

[7] = inhibitors of Bluetongue virus cytopathic effect, confirmation, arbovirus, BSR cells (AID 1250); assay type: functional;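 further: protection from viral cytopathic effect measured as cell viability by ATP luminescence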
[8] = molecular target: T2, Probable nicotinate-nucleotide adenylyltransferase (Staphylococcus aureus (strain N315), UniProt P65502); assay type: functional, Staphylococcus aureus subsp. aureus N315; conditions: read-out: IC50_Mean;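 on IC50 Mean: confirmatory dose-response retesting of NadD inhibitor hits first found in an ultra-high-throughput screen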
T2 sequence (P65502 whole entry): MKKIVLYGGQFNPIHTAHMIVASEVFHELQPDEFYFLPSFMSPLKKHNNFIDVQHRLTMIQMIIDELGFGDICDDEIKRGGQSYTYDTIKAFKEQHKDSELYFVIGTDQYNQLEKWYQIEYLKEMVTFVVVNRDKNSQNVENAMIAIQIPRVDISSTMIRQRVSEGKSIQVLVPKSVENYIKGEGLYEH

[9] = molecular target: T2, Probable nicotinate-nucleotide adenylyltransferase; assay type: functional, Staphylococcus aureus subsp. aureus N315
Phospholipase A2 = Phospholipase A2 (Homo sapiens, UniProt P04054); assay type: functional;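 further: confirmatory dose-response counterscreen on phospholipase A2, testing hits that came from an ultra-high-throughput screen for ATG4B inhibitors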
Chain of Phospholipase A2 (P04054 whole entry): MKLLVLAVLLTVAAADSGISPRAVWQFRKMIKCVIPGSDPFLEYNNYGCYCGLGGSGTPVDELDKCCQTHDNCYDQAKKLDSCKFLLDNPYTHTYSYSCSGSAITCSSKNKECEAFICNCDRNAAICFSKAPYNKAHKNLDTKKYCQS

Cysteine protease ATG4B = molecular target: T3, Cysteine protease ATG4B (Homo sapiens, UniProt Q9Y4P1); assay type: functional;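 further: Fluorescence-based dose-response confirmation assay measuring inhibition of ATG4B activity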
T3 sequence (Q9Y4P1 whole entry): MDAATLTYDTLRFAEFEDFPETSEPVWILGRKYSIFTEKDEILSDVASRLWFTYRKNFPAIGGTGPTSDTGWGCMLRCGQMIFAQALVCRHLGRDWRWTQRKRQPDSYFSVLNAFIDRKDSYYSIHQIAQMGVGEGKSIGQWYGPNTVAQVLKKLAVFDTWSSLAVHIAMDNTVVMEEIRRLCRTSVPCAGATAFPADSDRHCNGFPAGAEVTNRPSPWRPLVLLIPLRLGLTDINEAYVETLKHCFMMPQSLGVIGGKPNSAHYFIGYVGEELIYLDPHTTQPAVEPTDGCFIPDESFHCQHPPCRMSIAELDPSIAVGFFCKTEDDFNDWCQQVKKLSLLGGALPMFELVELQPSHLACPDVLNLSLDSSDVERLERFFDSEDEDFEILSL

[10] = molecular target: Lytic switch protein BZLF1 (Epstein-Barr virus (strain B95-8) (HHV-4) (Human herpesvirus 4), UniProt P03206); test: EBV ZTA inhibitors, dose response, counter-screen for EBNA-1 inhibitor project, biochemical, fluorescence polarization, Epstein-Barr virus, 1536-well (AID 2377); set-up: species or system human gammaherpesvirus 4;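 further: fluorescence polarization of Cy5-labelled ZRE DNA probe bound by purified Zta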
[11] = molecular target: Epstein-Barr nuclear antigen 1 (Epstein-Barr virus (strain B95-8) (HHV-4) (Human herpesvirus 4), UniProt P03211); test: EBNA-1 inhibitors, dose response, biochemical, fluorescence polarization, 1536-well (AID 2381); set-up: species or system human gammaherpesvirus 4;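 further: fluorescence polarization of a Cy5 DNA probe bound by EBNA-1 protein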
Chain of Epstein-Barr nuclear antigen 1 (P03211 whole entry): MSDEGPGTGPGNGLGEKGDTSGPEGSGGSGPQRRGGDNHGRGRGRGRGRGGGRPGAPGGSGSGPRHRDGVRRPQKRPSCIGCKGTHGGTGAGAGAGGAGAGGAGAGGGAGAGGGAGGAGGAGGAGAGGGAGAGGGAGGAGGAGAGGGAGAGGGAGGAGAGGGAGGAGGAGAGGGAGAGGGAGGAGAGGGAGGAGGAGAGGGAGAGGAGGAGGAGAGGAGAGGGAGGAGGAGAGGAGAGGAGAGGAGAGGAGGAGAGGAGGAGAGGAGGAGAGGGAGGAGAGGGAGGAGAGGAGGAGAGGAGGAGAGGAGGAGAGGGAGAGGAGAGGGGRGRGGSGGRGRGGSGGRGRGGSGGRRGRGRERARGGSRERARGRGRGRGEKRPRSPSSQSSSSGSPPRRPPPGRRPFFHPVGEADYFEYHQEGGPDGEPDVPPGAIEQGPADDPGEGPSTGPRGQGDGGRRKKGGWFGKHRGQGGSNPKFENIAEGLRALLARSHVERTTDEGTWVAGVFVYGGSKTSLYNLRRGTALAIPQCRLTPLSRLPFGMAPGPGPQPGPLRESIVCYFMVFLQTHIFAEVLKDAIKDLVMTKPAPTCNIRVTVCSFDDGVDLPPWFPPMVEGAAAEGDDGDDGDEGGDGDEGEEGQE

HEK293 [12] = test: optical interference in Abeta FP readout, dose response, artefact control for IDE activator project, biochemical, fluorescence polarization (AID 588442); assay type: functional, cell-based; conditions: Homo sapiens
[13] = molecular target: Ras and Rab interactor 1/Tyrosine-protein kinase ABL1 (Homo sapiens, UniProt P00519+Q13671); assay type: functional;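 further: biochemical TR-FRET dose-response test measuring inhibition of binding between Rin1 and Abl proteins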
HEK293 [14] = test: HEK cell cytotoxicity by LDH release, dose response, cytotoxicity control for IDE activator project, fluorescence, HEK cells (AID 588440); assay type: functional, cell-based; conditions: Homo sapiens;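 further: cytotoxicity by LDH release measuring loss of membrane integrity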
[15] = molecular target: Peroxisome proliferator-activated receptor gamma/Nuclear receptor corepressor 2 (Homo sapiens, UniProt P37231+Q9Y618); assay type: functional
Chain of Peroxisome proliferator-activated receptor gamma/Nuclear receptor corepressor 2 (P37231 whole entry): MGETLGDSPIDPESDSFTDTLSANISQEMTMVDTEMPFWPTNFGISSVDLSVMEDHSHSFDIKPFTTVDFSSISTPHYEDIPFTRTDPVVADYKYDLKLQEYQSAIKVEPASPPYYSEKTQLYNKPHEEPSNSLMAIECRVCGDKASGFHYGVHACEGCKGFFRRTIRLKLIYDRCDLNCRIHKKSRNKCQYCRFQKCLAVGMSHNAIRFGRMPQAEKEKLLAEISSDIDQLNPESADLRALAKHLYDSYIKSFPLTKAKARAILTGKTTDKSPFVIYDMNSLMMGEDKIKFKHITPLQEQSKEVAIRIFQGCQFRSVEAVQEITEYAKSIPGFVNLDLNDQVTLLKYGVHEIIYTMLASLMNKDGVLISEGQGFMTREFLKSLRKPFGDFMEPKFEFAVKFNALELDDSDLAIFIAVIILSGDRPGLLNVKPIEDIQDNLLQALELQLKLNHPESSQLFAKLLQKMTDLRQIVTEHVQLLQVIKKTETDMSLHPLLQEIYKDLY
Chain of Peroxisome proliferator-activated receptor gamma/Nuclear receptor corepressor 2 (Q9Y618 whole entry): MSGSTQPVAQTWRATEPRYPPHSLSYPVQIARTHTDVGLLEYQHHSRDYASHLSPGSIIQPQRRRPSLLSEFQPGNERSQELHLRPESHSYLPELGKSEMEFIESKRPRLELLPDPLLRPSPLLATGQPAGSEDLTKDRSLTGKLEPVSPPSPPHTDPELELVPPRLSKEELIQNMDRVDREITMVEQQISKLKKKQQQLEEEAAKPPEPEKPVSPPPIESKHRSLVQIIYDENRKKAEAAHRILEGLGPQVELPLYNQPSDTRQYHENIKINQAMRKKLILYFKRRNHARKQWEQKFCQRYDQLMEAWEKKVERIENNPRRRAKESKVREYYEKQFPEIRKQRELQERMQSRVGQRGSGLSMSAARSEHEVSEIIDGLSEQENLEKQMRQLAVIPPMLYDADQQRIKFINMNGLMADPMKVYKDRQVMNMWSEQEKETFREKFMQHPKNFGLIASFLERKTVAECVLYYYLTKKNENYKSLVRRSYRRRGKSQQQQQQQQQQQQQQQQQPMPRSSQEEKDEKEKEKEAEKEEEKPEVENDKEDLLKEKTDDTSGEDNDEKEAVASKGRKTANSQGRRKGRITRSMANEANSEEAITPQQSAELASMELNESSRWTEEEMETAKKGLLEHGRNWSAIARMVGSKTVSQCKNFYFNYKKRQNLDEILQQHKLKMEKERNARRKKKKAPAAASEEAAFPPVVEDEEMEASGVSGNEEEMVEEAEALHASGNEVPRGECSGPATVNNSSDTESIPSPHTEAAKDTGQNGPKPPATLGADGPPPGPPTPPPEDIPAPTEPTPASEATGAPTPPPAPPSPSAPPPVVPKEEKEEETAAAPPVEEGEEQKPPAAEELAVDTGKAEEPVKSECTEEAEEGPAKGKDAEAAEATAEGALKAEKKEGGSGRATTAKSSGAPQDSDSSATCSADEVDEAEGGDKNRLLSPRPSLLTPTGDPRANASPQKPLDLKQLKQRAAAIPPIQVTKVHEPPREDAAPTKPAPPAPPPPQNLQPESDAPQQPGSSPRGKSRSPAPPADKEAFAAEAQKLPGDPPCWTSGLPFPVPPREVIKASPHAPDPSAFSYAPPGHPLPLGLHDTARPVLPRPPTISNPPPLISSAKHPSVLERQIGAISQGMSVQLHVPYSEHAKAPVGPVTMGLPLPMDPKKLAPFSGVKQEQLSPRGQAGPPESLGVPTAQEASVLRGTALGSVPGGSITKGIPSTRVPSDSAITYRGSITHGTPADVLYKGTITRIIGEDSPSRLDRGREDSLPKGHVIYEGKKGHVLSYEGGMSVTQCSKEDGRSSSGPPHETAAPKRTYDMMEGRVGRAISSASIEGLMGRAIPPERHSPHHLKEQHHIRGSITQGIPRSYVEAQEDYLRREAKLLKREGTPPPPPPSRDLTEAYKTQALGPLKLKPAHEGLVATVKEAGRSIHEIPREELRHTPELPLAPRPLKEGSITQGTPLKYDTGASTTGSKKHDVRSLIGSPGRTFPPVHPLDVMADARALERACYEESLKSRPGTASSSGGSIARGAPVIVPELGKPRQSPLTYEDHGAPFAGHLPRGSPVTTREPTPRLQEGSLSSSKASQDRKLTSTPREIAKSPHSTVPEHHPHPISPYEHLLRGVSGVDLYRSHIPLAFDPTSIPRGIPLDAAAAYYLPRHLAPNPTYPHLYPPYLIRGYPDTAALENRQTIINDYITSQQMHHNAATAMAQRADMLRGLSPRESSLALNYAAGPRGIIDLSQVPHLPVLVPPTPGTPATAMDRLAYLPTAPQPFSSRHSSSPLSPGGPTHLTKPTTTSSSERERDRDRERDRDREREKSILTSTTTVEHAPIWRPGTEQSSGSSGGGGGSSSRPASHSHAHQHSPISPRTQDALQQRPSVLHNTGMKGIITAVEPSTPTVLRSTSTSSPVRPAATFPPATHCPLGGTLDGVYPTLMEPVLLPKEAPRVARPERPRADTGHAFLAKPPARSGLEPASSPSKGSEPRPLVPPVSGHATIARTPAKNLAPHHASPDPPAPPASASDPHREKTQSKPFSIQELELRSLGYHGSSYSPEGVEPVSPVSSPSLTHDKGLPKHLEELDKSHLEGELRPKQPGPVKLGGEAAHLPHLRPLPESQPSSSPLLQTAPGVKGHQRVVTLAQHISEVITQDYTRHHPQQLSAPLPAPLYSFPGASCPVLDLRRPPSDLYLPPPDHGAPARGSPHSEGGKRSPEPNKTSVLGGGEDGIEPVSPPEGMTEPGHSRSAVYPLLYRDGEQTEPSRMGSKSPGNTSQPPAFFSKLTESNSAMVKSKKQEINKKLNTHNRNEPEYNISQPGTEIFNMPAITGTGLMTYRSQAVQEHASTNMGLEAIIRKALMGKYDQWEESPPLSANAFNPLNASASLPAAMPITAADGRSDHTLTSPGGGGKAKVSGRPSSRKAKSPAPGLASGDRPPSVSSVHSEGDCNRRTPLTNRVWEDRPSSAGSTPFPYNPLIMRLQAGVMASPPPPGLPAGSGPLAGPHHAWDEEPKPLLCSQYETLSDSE

Insulin-degrading enzyme [16] = molecular target: T4, Insulin-degrading enzyme (Homo sapiens, UniProt P14735); test: activators of endogenous IDE in HEK cells, dose response, cell-based, fluorescence polarization (AID 588439); assay type: functional
T4 sequence (P14735 whole entry): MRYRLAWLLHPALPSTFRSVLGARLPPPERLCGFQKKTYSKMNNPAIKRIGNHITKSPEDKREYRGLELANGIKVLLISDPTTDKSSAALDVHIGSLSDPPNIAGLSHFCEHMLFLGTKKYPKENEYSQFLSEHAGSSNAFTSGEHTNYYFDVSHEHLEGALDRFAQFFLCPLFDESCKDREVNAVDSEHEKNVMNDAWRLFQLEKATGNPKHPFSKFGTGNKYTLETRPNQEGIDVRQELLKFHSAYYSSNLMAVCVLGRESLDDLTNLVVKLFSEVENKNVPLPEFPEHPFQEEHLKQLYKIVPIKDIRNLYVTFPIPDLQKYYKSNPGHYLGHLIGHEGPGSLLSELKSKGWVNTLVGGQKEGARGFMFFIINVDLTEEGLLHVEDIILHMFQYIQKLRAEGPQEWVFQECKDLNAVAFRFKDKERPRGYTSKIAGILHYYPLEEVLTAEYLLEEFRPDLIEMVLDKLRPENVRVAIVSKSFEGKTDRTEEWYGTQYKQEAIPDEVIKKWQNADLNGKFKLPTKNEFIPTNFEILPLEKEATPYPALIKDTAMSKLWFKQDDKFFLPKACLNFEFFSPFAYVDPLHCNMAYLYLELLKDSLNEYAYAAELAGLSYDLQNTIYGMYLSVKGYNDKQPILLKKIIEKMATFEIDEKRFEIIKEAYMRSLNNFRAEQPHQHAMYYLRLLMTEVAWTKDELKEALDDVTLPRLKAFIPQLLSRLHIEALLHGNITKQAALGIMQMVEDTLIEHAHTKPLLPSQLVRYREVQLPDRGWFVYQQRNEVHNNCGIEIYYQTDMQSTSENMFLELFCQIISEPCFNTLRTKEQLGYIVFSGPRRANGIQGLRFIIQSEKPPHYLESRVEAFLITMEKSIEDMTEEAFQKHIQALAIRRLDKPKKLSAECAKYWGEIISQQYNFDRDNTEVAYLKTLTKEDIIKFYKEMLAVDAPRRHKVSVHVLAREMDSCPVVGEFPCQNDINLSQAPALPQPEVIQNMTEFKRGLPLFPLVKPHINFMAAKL

[17] = molecular target: Photoreceptor-specific nuclear receptor (Homo sapiens, UniProt Q9Y5X4); assay type: functional;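 further: potency for compounds that break the NR2E3 corepressor complex and count as activators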
Chain of Photoreceptor-specific nuclear receptor (Q9Y5X4 whole entry): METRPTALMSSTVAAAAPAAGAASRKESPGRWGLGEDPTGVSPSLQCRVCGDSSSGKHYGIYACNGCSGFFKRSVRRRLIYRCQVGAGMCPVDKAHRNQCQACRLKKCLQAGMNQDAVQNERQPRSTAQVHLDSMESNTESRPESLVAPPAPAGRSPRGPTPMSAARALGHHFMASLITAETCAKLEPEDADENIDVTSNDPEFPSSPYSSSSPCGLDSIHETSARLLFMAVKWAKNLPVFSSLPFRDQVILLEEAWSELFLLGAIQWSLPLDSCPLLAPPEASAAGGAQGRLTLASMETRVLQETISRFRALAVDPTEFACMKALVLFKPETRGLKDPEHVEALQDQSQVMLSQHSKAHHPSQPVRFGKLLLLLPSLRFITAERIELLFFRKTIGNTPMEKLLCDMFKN

Nonstructural protein 1 = Nonstructural protein 1 (Influenza A virus, UniProt Q194T2); assay type: functional, Influenza A virus (A/California/07/2009(H1N1))
Chain of Nonstructural protein 1 (Q194T2 whole entry): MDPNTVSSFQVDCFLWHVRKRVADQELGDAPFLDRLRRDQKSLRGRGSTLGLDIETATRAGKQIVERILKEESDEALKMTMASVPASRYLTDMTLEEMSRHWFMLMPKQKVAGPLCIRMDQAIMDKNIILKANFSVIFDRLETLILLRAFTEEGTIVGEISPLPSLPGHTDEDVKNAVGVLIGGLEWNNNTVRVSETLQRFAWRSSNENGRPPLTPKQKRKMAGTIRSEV

Insulin-degrading enzyme [18] = molecular target: T4, Insulin-degrading enzyme; test: activators of recombinant IDE enzyme, dose response, counter-screen for IDE activator project, biochemical, fluorescence polarization (AID 588681)
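Wherever AC50 is given: cells exposed to compound for roughly 70 hours or longer before luminescence read.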

Chain of Oxytocin receptor (P30559 whole entry): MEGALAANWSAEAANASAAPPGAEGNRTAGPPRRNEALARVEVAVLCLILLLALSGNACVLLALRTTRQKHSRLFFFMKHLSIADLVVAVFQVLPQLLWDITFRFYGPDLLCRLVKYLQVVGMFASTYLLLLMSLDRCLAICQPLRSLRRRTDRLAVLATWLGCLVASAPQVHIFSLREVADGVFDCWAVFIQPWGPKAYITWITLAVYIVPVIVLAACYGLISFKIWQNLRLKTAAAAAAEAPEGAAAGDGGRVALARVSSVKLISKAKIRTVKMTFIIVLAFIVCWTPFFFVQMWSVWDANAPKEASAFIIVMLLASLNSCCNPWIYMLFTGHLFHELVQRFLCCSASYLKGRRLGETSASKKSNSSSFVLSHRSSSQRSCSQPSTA

CC1(C)CC[C@@]2(C(=O)O)C(C1)C1=CCC3[C@@]4(C)CC[C@H](O)C(C)(C)C4CC[C@@]3(C)[C@]1(C)C[C@H]2O (some centres undefined)
EC50 (Oxytocin receptor): 2.67 µM (active)
AC50 [1]: 7.33 µM (active)
EC50 (Vasopressin V1a receptor): 2.33 µM (active)

O=C(OCC1OC(n2ncc(=O)[nH]c2=O)C(OC(=O)c2ccccc2)C1OC(=O)c1ccccc1)c1ccccc1 (centres undefined)
IC50 [2]: 12.2 µM (active)
EC50 [3]: > 120 µM (not active)
EC50 [4]: 13.5 µM (active)
EC50 [5]: 17.7 µM (active)

Cc1nnc(Oc2ccccc2F)c2ccccc12
IC50 (Estrogen receptor): 30 µM (active)
IC50 [6]: > 50 µM (not active)

CCc1nnc(NS(=O)(=O)c2ccc(N/C=C\C(=O)c3ccc4ccccc4c3)cc2)s1
IC50 [7]: 62.9 µM (active)
IC50 [8]: 29.7 µM (active)
IC50 [9]: 5.19 µM (active)
IC50 (Phospholipase A2): 9.13 µM (active)
IC50 (Cysteine protease ATG4B): 11.1 µM (active)

CCOc1ccc(C(=O)NC(=S)Nc2ccc(NC(=O)C(C)C)cc2)cc1[N+](=O)[O-]
IC50 [10]: > 111 µM (not active)
IC50 [11]: 1.89 µM (active)

C[C@@H]1NC(=O)N[C@@H]1CCCCCC(=O)O
EC50 (HEK293 [12]): 11.9 µM (inactive)
IC50 [13]: 0.0101 µM (active)
IC50 (HEK293 [14]): > 89.2 µM (inactive)
IC50 [15]: 1.38 µM (active)
EC50 (Insulin-degrading enzyme [16]): 7.8 µM (active)
IC50 [17]: 0.149 µM (active)
IC50 (Nonstructural protein 1): 1.57 µM (active)
EC50 (Insulin-degrading enzyme [18]): 7.41 µM (active)
